We go through ten compounds from patent US20080096861A1, “Chemical Compounds” (SMITHKLINE BEECHAM CORPORATION, priority 2004, published 2008).

Common to all, as to type: cell-based
The target of data set [1] is T1, CXCR4 receptor (Homo sapiens, UniProt P61073).
T1 construct: expressed in transfected cells; host or cells: HEK-293 cells (stably expressing human macrophage scavenger receptor) transduced with human CXCR4 BacMam and Gqi5 BacMam
As to the kind of experiment: Functional FLIPR assay (block of SDF-1 alpha induced [Ca2+]i change). The following applies: HEK-293 cells, human CXCR4 BacMam and Gqi5 BacMam, read-out: Functional assay (pIC50) (converted). The method, then:
Human embryonic kidney (HEK-293) cells were maintained and harvested as described above. Cells were plated in 96-well, black clear bottom, poly-lysine coated plates at a concentration of 40,000 cells per well in a final volume of 100 ul containing human CXCR4BacMam (MOI=25) and Gqi5 BacMam (MOI=12.5). The cells were incubated at 37° C., 5% CO2, 95% humidity for 24 h to allow for protein expression.
After the required incubation time the cells were washed once with 50 ul of fresh serum-free DMEM/F12 media containing probenicid. 50 ul of dye solution was then added to the cells (Calcium Plus Assay Kit Dye; Molecular Devices) was dissolved in 200 ml of the above probenicid/BSA containing media and incubated for 1 h. Cell plates were transferred to a Fluorometric Imaging Plate Reader (FLIPR). Upon addition the effect of the compounds on the change in [Ca^2+]i was examined to determine if the compounds were agonists or antagonists (ability to block SDF-1 alpha activity) at the CXCR4 receptor. IC50 values are determined and pKb values are calculated using the Leff and Dougall equation: KB═IC50/((2+([agonist]/EC50̂b)̂1/b−1) Where IC50 is that defined by the antagonist concentration-response curve [agonist)] is the EC80 concentration of agonist used EC50 is that defined by the agonist concentration-response curve b is the slope of the agonist concentration-response curve.

In data set [2] the test system is HIV-1 gp160 (HXB2 strain) mediated cell/cell fusion. As to the kind of experiment: Cell/cell fusion assay (HOS hCXCR4/hCCR5/hCD4/pHIV-LTR-luciferase cells with HEK-293 cells expressing HIV-1 tat, rev, gp160), luciferase readout. The following applies: Homo sapiens, HEK293, 24 h, read-out: Fusion assay (pIC50) (converted). An excerpt: The complete coding sequences of HIV-1 tat (GenBank Accession No. X07861) and rev (GenBank Accession No. M34378) were cloned into pcDNA3.1 expression vectors containing G418 and hygromycin resistance genes, respectively. The complete coding sequence of the HIV-1 (HXB2 strain) gp160 envelope gene (nucleotide bases 6225-8795 of GenBank Accession No. K03455) was cloned into plasmid pCRII-TOPO. The three HIV genes were additionally inserted into the baculovirus shuttle vector, pFastBacMam1, under the transcriptional control of the CMV promoter. A construction of the pHIV-1 LTR containing mutated NFkB sequences linked to the luciferase reporter gene was prepared by digesting pcDNA3.1, containing the G418 resistance gene, with Nru I and Bam HI to remove the CMV promoter. LTR-luc was then cloned into the Nru I/Bam HI sites of the plasmid vector. Plasmid preparations were performed after the plasmids were amplified in Escherichia coli strain DH5-alpha. The fidelity of the inserted sequences was confirmed by double-strand nucleotide sequencing using an ABI Prism Model 377 automated sequencer.
Recombinant BacMam baculoviruses were constructed from pFastBacMam shuttle plasmids by using the bacterial cell-based Bac-to-Bac system. Viruses were propagated in Sf9 (Spodoptera frugiperda) cells cultured in Hink's TNM-FH Insect media supplemented with 10% (v/v) fetal bovine serum and 0.1% (v/v) pluronic F-68 according to established protocols.
Human osteosarcoma (HOS) cells that naturally express human CXCR4 were transfected with human CCR5, human CD4 and the pHIV-LTR-luciferase plasmid using FuGENE 6 transfection reagent. Single cells were isolated and grown under selection condition in order to generate a stable HOS (hCXCR4/hCCR5/hCD4/pHIV-LTR-luciferase) clonal cell line. The cells were maintained in Dulbeccos modified Eagles media supplemented with 10% fetal calf serum (FCS), G418 (400 ug/ml), puromycin (1 ug/ml), mycophenolic acid (40 ug/ml), xanthine (250 ug/ml) and hypoxanthine (13.5 ug/ml) to maintain a selection pressure for cells expressing the LTR-luciferase, hCCR5 and hCD4, respectively. Human embryonic kidney (HEK-293) cells stably transfected to express the human macrophage scavenging receptor (Class A, type 1; GenBank Accession No. D90187), were maintained in DMEM/F-12 media (1:1) supplemented with 10% FCS and 1.5 ug/ml puromycin. The expression of this receptor by the HEK-293 cells enhances their ability to stick to tissue culture treated plasticware.
HEK-293 cells were harvested using enzyme-free cell dissociation buffer. The cells were resuspended in DMEM/F-12 media supplemented with 10% FCS and 1.5 ug/ml and counted. Tranductions were performed by direct addition of BacMam baculovirus containing insect cell media to cells. The cells were simultaneously transduced with BacMam baculovirus expressing HIV-1 tat, HIV-1 rev and HIV-1 gp160 (from the HXB2 HIV strain). Routinely an MOI of 10 of each virus was added to the media containing the cells. 2 mM butyric acid was also added to the cells at this stage to increase protein expression in transduced cells. The cells were subsequently mixed and seeded into a flask at 30 million cells per T225. The cells were incubated at 37° C., 5% CO2, 95% humidity for 24 h to allow for protein expression.
HEK and HOS cells were harvested in DMEM/F-12 media containing 2% FCS and DMEM media containing 2% FCS, respectively, with no selection agents added. Compounds were plated as 1 ul spots in 100% DMSO on a 96-well CulturPlate plates. HOS cells (50 ul) were added first to the wells, followed immediately by the HEK cells (50 ul). The final concentration of each cell type was 20,000 cells per well. Following these additions, the cells were returned to a tissue culture incubator (37° C.; 5% CO2/95% air) for an additional 24 h.
Following the 24 h incubation, total cellular luciferase activity was measured using the LucLite Plus assay kit (Packard, Meridien, Conn.). […]

The nature of data set [3]: Compound cytotoxicity in HOS cells in the absence of virus (CellTiter-Glo). The following applies: human, no virus, read-out: Cytotox (pIC50) (converted). The protocol: Compounds were profiled against two HIV-1 viruses, the M-tropic (CCR5 utilizing) Ba-L strain and the T-tropic (CXCR4 utilizing) IIIB strain. Both viruses were propagated in human peripheral blood lymphocytes. Compounds were tested for there ability to block infection of the HOS cell line (expressing hCXCR4/hCCR5/hCD4/pHIV-LTR-luciferase) by either HIV-1 Ba-L or HIV-1 IIIB. Compound cytotoxicity was also examined in the absence of virus addition.
HOS cells (expressing hCXCR4/hCCR5/hCD4/pHIV-LTR-luciferase) were harvested and diluted in Dulbeccos modified Eagles media supplemented with 2% FCS and non-essential amino acid to a concentration of 60,000 cells/ml. The cells were plated into 96-well plates (100 ul per well) and the plates were placed in a tissue culture incubator (37° C.; 5% CO2/95% air) for a period of 24 h.
Subsequently, 50 ul of the desired drug solution (4 times the final concentration) was added to each well and the plates were returned to the tissue culture incubator (37° C.; 5% CO2/95% air) for 1 h. Following this incubation 50 ul of diluted virus was added to each well (approximately 2 million RLU per well of virus). The plates were returned to the tissue culture incubator (37° C.; 5% CO2/95% air) and were incubated for a further 96 h.
Following this incubation the endpoint for the virally infected cultures was quantified following addition of Steady-Glo Luciferase assay system reagent (Promega, Madison, Wis.). Cell viability or non-infected cultures was measured using a CellTiter-Glo luminescent cell viability assay system (Promega, Madison, Wis.). All luminescent readouts are performed on a Topcount luminescence detector (Packard, Meridien, Conn.).
In general terms: Cellular ATP, detected with luciferase, serves as a proxy for viable cell number.

For data set [4], the system named is HIV-1 IIIB. The data set can be described thus: HOS HIV-1 infectivity assay. Summed up: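 Cells were plated and left 24 h, after which compound was added for 1 h. Virus at about 2 million RLU per well followed, with 96 h further incubation at 37 °C, 5% CO2. Luciferase activity was then measured with Steady-Glo, and uninfected-culture viability with CellTiter-Glo.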

The mark [5] stands for this setting: Human immunodeficiency virus 1, IIIB, as determined by the infectivity assay, strain not stated in Table 2, read-out: Activity Level.
The mark [6] stands for this setting: Human immunodeficiency virus 1, T-tropic (CXCR4 utilizing) IIIB strain, HOS cells, 96 h, read-out: HOS (3B).

Where two headings read alike, the source gives them in different places.

T1 sequence (P61073 whole entry): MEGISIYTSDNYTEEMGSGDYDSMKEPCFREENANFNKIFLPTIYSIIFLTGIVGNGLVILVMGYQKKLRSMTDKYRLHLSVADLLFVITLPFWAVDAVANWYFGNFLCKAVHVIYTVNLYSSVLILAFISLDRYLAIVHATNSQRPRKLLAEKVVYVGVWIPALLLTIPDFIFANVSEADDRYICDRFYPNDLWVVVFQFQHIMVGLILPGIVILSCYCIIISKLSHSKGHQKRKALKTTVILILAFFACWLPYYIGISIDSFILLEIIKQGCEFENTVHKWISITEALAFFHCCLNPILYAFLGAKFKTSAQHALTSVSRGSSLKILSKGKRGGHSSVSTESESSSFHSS

For the compound `CN1CCC(Cn2c(CN(C)C3CCCc4cccnc43)nc3ccccc32)C1` (centres unmarked) [Example 8d, N-Methyl-N-({1-[(1-methyl-3-pyrrolidinyl)methyl]-1H-benzimidazol-2-yl}methyl)-5,6,7,8-tetrahydro-8-quinolinamine], the IC50 is 0.0741 µM in data set [1], 0.0741 µM in data set [2], less than 0.1 µM in data set [4] (setting [5]) and 0.057 µM in data set [4] (setting [6]). Further, in data set [3], the IC50 at 96 h was more than 100 µM.
Take `CN1CCN(CCCn2c(CN(C)C3CCCc4cccnc43)nc3ccccc32)CC1` (centres unmarked) [Example 9, N-Methyl-N-({1-[3-(4-methyl-1-piperazinyl)propyl]-1H-benzimidazol-2-yl}methyl)-5,6,7,8-tetrahydro-8-quinolinamine]: the IC50 in data set [1] was 0.135 µM; in data set [2] it was 0.166 µM; in data set [4] (setting [5]) it was less than 0.1 µM; in data set [4] (setting [6]), 0.093 µM. Moreover, the IC50 at 96 h in data set [3] was more than 100 µM.
As to `CN1CC(Cn2c(CN(C)C3CCCc4cccnc43)nc3ccccc32)C1` (centres unmarked) [Example 10e, N-Methyl-N-({1-[(1-methyl-3-azetidinyl)methyl]-1H-benzimidazol-2-yl}methyl)-5,6,7,8-tetrahydro-8-quinolinamine], the IC50 was 0.117 µM in data set [1], 0.0912 µM in data set [2], less than 0.1 µM in data set [4] (setting [5]) and 0.066 µM in data set [4] (setting [6]). Moreover, in data set [3], the IC50 at 96 h was more than 100 µM.
Consider `CN1CCC(n2c(CN(C)C3CCCc4cccnc43)nc3ccccc32)CC1` (centres unmarked) [Example 11i, N-Methyl-N-{[1-(1-methyl-4-piperidinyl)-1H-benzimidazol-2-yl]methyl}-5,6,7,8-tetrahydro-8-quinolinamine], for which the IC50 is 0.0372 µM in data set [1]; 0.0794 µM in data set [2]; 0.082 µM in data set [4] (Human immunodeficiency virus 1, IIIB, HOS, 96 h, read-out: HOS (3B) (uM)); less than 0.1 µM in data set [4] (Human immunodeficiency virus 1, IIIB, read-out: Activity Level). In addition, the IC50 at 96 h in data set [3] was more than 100 µM.
On to `CN(Cc1nc2ccccc2n1Cc1ccc(CNCc2ccccn2)cc1)C1CCCc2cccnc21` (centres unmarked) [Example 12, N-Methyl-N-({1-[(4-{[(2-pyridinylmethyl)amino]methyl}phenyl)methyl]-1H-benzimidazol-2-yl}methyl)-5,6,7,8-tetrahydro-8-quinolinamine], for which the IC50 was 0.224 µM in data set [1], 0.575 µM in data set [2], 0.1 to 0.5 µM in data set [4] (setting [5]) and 0.376 µM in data set [4] (setting [6]). For the same compound, the IC50 at 96 h in data set [3] was more than 100 µM.
As for `CN(Cc1nc2ccccc2n1CCCCN)C1CCCc2cccnc21` (centres unmarked) [Example 13, N-{[1-(4-Aminobutyl)-1H-benzimidazol-2-yl]methyl}-N-methyl-5,6,7,8-tetrahydro-8-quinolinamine], the IC50 in data set [1] was 0.302 µM; in data set [2] it was 0.126 µM; in data set [4] (setting [5]) it was 0.1 to 0.5 µM; in data set [4] (setting [6]) it was 0.131 µM. In data set [3], the IC50 at 96 h is more than 100 µM.
The corresponding values for `CN(Cc1nc2ccccc2n1Cc1ccc(CN)cc1)C1CCCc2cccnc21` (centres unmarked) [Example 14, N-[(1-{[4-(Aminomethyl)phenyl]methyl}-1H-benzimidazol-2-yl)methyl]-N-methyl-5,6,7,8-tetrahydro-8-quinolinamine] are 0.282 µM, 0.708 µM, 0.5 to 10 µM, 0.985 µM and more than 100 µM.
The corresponding values for `CN(C)CCCn1c(CN(C)C2CCCc3cccnc32)nc2ccccc21` (centres unmarked) [Example 15c, N-({1-[3-(Dimethylamino)propyl]-1H-benzimidazol-2-yl}methyl)-N-methyl-5,6,7,8-tetrahydro-8-quinolinamine] are 0.017 µM, 0.0166 µM, less than 0.1 µM, 0.023 µM and more than 100 µM.
For `CN(Cc1nc2ccccc2n1CCCNCc1ccccn1)C1CCCc2cccnc21` (centres unmarked) [Example 16, N-Methyl-N-[(1-{3-[(2-pyridinylmethyl)amino]propyl}-1H-benzimidazol-2-yl)methyl]-5,6,7,8-tetrahydro-8-quinolinamine] the same measures were 0.0589 µM, 0.148 µM, 0.1 to 0.5 µM, 0.121 µM and more than 100 µM.
For the compound `CN(C)CCCCCn1c(CN(C)C2CCCc3cccnc32)nc2ccccc21` (centres unmarked) [Example 17, N-({1-[5-(Dimethylamino)pentyl]-1H-benzimidazol-2-yl}methyl)-N-methyl-5,6,7,8-tetrahydro-8-quinolinamine], the IC50 in data set [1] was 0.204 µM; in data set [2], 0.324 µM; in data set [4] (setting [5]), 0.1 to 0.5 µM; in data set [4] (setting [6]) it was 0.251 µM. Besides, the IC50 at 96 h in data set [3] was more than 100 µM.
